Results: US8828401B2, “Cytotoxic peptides and antibody drug conjugates thereof” (Pfizer Inc., priority 2011, dated 2014)
Starred links: 1 amine or outer side, 2 acyl side, 3 side chain; linkers in the order of their positions; H or OH if unused. Non-standard residues stand in square brackets, D forms with d. Residues, ends and D or L forms follow the SMILES beside them. *: point of attachment. Dolaproine = CO[C@@H]([C@@H]1CCCN1)[C@@H](C)C(=O)O; X12 = O=C([C@@H](N[*:1])[C@@H]1Cc2ccccc21)[*:2]; Dil = CC[C@H](C)[C@H](NC)[C@@H](CC(=O)O)OC; Phe(4-NH2) = Nc1ccc(C[C@H](N)C(=O)O)cc1; X10 = C[C@@H](N*)[C@@H](O)c1ccccc1; NMeαMePro = CN1CCC[C@@]1(C)C(=O)*; Ac4c(3-oxa) = NC1(C(=O)O)COC1; αMeP = C[C@@]1(C(=O)O)CCCN1; dIva = CC[C@@](C)(N)C(=O)O; X1 = CN1CCC[C@]1(C)C(=O)*; NMeAib = CNC(C)(C)C(=O)O; X8 = C1=CC=CC(CCN*)C=C1; Aib = CC(C)(N)C(=O)O; X14 = c1[nH]nnc1CN*

How the values were obtained:
[1] = test system: MDA-MB-361-DYT2 (breast cancer); experiment: In vitro cell assay, MTS cell viability 96 hours after treatment; type: cell-based; settings: read-out: MDA-MB-361-DYT2 GMEAN IC50, MDA-MB-361-DYT2 cells; geometric mean; cytotoxic peptides
Experimental: (§1) Cells were treated with 3-fold serially diluted antibody-drug conjugates or free compounds (i.e., no antibody conjugated to the drug) in duplicate at 10 concentrations. Cell viability was determined by CellTiter 96® AQueous One Solution Cell Proliferation MTS Assay (Promega, Madison Wis.) 96 hours after treatment. Relative cell viability was determined as percentage of untreated control.

N87 (gastric cancer) = experiment: as above; type: cell-based; settings: read-out: N87 GMEAN IC50, N87 cells; geometric mean; cytotoxic peptides
Experimental: as §1

Compound	IC50 [1]	IC50 (N87 (gastric cancer))
CC[C@H](C)[C@@H]([C@@H](CC(=O)N1CCC[C@H]1[C@H](OC)[C@@H](C)C(=O)NCCC1C=CC=CC=C1)OC)N(C)C(=O)[C@@H](NC(=O)[C@]1(C)CCCN1)C(C)C [#182, 2-methyl-L-prolyl-N-[(3R,4S,5S)-1-{(2S)-2-[(1R,2R)-3-{[2-(cyclohepta-2,4,6-trien-1-yl)ethyl]amino}-1-methoxy-2-methyl-3-oxopropyl]pyrrolidin-1-yl}-3-methoxy-5-methyl-1-oxoheptan-4-yl]-N-methyl-L-valinamide] (H-[αMeP]V[Dil][Dolaproine]-X8)	0.122 nM	0.148 nM
CC[C@H](C)[C@@H]([C@@H](CC(=O)N1CCC[C@H]1[C@H](OC)[C@@H](C)C(=O)N[C@H](C)[C@@H](O)c1ccccc1)OC)N(C)C(=O)[C@@H](NC(=O)C(C)(C)NC)C(C)C [#145, N,2-dimethylalanyl-N-{(1S,2R)-4-{(2S)-2-[(1R,2R)-3-{[(1R,2S)-2-hydroxy-1-methyl-2-phenylethyl]amino}-1-methoxy-2-methyl-3-oxopropyl]pyrrolidin-1-yl}-2-methoxy-1-[(1S)-1-methylpropyl]-4-oxobutyl}-N-methyl-L-valinamide] (H-[NMeAib]V[Dil][Dolaproine]-X10)	0.229 nM	0.167 nM
CC[C@H](C)[C@@H]([C@@H](CC(=O)N1CCC[C@H]1[C@H](OC)[C@@H](C)C(=O)N[C@@H](Cc1ccccc1)c1nccs1)OC)N(C)C(=O)[C@@H](NC(=O)[C@]1(C)CCCCN1)C(C)C [#188, (2S)—N-[(2S)-1-{[(3R,4S,5S)-3-methoxy-1-{(2S)-2-[(1R,2R)-1-methoxy-2-methyl-3-oxo-3-{[(1S)-2-phenyl-1-(1,3-thiazol-2-yl)ethyl]amino}propyl]pyrrolidin-1-yl}-5-methyl-1-oxoheptan-4-yl](methyl)amino}-3-methyl-1-oxobutan-2-yl]-2-methylpiperidine-2-carboxamide]	0.404 nM	
CC[C@H](C)[C@@H]([C@@H](CC(=O)N1CCC[C@H]1[C@H](OC)[C@@H](C)C(=O)N[C@@H](Cc1ccccc1)C(=O)OC)OC)N(C)C(=O)[C@@H](NC(=O)[C@](C)(N)CC)C(C)C [#149, D-isovalyl-N-{(1S,2R)-4-{(2S)-2-[(1R,2R)-3-{[(1S)-1-benzyl-2-methoxy-2-oxoethyl]amino}-1-methoxy-2-methyl-3-oxopropyl]pyrrolidin-1-yl}-2-methoxy-1-[(1S)-1-methylpropyl]-4-oxobutyl}-N-methyl-L-valinamide] (H-[dIva]V[Dil][Dolaproine]F-OMe)	0.428 nM	
CC[C@H](C)[C@@H]([C@@H](CC(=O)N1CCC[C@H]1[C@H](OC)[C@@H](C)C(=S)NCCc1ccccc1)OC)N(C)C(=O)[C@@H](NC(=O)[C@@H](NC)C(C)C)C(C)C [#36, N-methyl-L-valyl-N-{(3R,4S,5S)-3-methoxy-1-[(2S)-2-{(1R,2R)-1-methoxy-2-methyl-3-[(2-phenylethyl)amino]-3-thioxopropyl}pyrrolidin-1-yl]-5-methyl-1-oxoheptan-4-yl}-N-methyl-L-valinamide]	1.11 nM	1.21 nM
CC[C@H](C)[C@@H]([C@@H](CC(=O)N1CCC[C@H]1[C@H](OC)[C@@H](C)C(=O)N[C@H](C(=O)OC)[C@@H]1Cc2ccccc21)OC)N(C)C(=O)[C@@H](NC(=O)C(C)(C)N)C(C)C [#227] (H-[Aib]V[Dil][Dolaproine][X12]-OMe)	12.9 nM	19 nM
CC[C@H](C)[C@@H]([C@@H](CC(=O)N1CCC[C@H]1[C@H](OC)[C@@H](C)C(=O)N[C@@H](Cc1ccc2c(c1)CCCN2)C(=O)OC)OC)N(C)C(=O)[C@@H](NC(=O)[C@]1(C)CCCN1C)C(C)C [#207, 1,2-dimethyl-L-prolyl-N-[(3R,4S,5S)-3-methoxy-1-{(2S)-2-[(1R,2R)-1-methoxy-3-{[(2S)-1-methoxy-1-oxo-3-(1,2,3,4-tetrahydroquinolin-6-yl)propan-2-yl]amino}-2-methyl-3-oxopropyl]pyrrolidin-1-yl}-5-methyl-1-oxoheptan-4-yl]-N-methyl-L-valinamide]		0.626 nM
CC[C@H](C)[C@@H]([C@@H](CC(=O)N1CCC[C@H]1[C@H](OC)[C@@H](C)C(=S)N[C@@H](Cc1ccccc1)C(=O)OC)OC)N(C)C(=O)[C@@H](NC(=O)C(C)(C)N)C(C)C [#45, 2-methylalanyl-N-[(3R,4S,5S)-3-methoxy-1-{(2S)-2-[(1R,2R)-1-methoxy-3-{[(2S)-1-methoxy-1-oxo-3-phenylpropan-2-yl]amino}-2-methyl-3-thioxopropyl]pyrrolidin-1-yl}-5-methyl-1-oxoheptan-4-yl]-N-methyl-L-valinamide]	0.415 nM	0.385 nM
CC[C@H](C)[C@@H]([C@@H](CC(=O)N1CCC[C@H]1[C@H](OC)[C@@H](C)C(=O)NCCC1C=CC=CC=C1)OC)N(C)C(=O)[C@@H](NC(=O)C(C)(C)N)C(C)C [#66, 2-Methylalanyl-N-[(3R,4S,5S)-1-{(2S)-2-[(1R,2R)-3-{[2-(cyclohepta-2,4,6-trien-1-yl)ethyl]amino}-1-methoxy-2-methyl-3-oxopropyl]pyrrolidin-1-yl}-3-methoxy-5-methyl-1-oxoheptan-4-yl]-N-methyl-L-valinamide] (H-[Aib]V[Dil][Dolaproine]-X8)	0.334 nM	
CC[C@H](C)[C@@H]([C@@H](CC(=O)N1CCC[C@H]1[C@H](OC)[C@@H](C)C(=O)N[C@@H](Cc1ccccc1)C(=O)O)OC)N(C)C(=O)[C@@H](NC(=O)[C@@]1(C)CCCN1C)C(C)C [#153, 1,2-dimethyl-D-prolyl-N-{(1S,2R)-4-{(2S)-2-[(1R,2R)-3-{[(1S)-1-carboxy-2-phenylethyl]amino}-1-methoxy-2-methyl-3-oxopropyl]pyrrolidin-1-yl}-2-methoxy-1-[(1S)-1-methylpropyl]-4-oxobutyl}-N-methyl-L-valinamide] (X1-V[Dil][Dolaproine]F-OH)	91.3 nM	47.3 nM
CC[C@H](C)[C@@H]([C@@H](CC(=O)N1CCC[C@H]1[C@H](OC)[C@@H](C)C(=O)N[C@@H](Cc1ccc(N)cc1)C(=O)OC)OC)N(C)C(=O)[C@@H](NC(=O)[C@]1(C)CCCN1C)C(C)C [#208, 1,2-dimethyl-L-prolyl-N-[(3R,4S,5S)-1-{(2S)-2-[(1R,2R)-3-{[(2S)-3-(4-aminophenyl)-1-methoxy-1-oxopropan-2-yl]amino}-1-methoxy-2-methyl-3-oxopropyl]pyrrolidin-1-yl}-3-methoxy-5-methyl-1-oxoheptan-4-yl]-N-methyl-L-valinamide] (NMeαMePro-V[Dil][Dolaproine][Phe(4-NH2)]-OMe)	0.336 nM	0.379 nM
CC[C@H](C)[C@@H]([C@@H](CC(=O)N1CCC[C@H]1[C@H](OC)[C@@H](C)C(=O)N[C@H](C)[C@@H](O)c1ccccc1)OC)N(C)C(=O)[C@@H](NC(=O)[C@]1(C)CCCN1)C(C)C [#134, 2-methyl-L-prolyl-N-[(3R,4S,5S)-1-{(2S)-2-[(1R,2R)-3-{[(1S,2R)-1-hydroxy-1-phenylpropan-2-yl]amino}-1-methoxy-2-methyl-3-oxopropyl]pyrrolidin-1-yl}-3-methoxy-5-methyl-1-oxoheptan-4-yl]-N-methyl-L-valinamide] (H-[αMeP]V[Dil][Dolaproine]-X10)	0.134 nM	0.115 nM
CC[C@H](C)[C@@H]([C@@H](CC(=O)N1CCC[C@H]1[C@H](OC)[C@@H](C)C(=O)N[C@@H](Cc1ccccc1)C(=O)OC)OC)N(C)C(=O)[C@@H](NC(=O)C(C)(C)N)C(C)C [#70, 2-methylalanyl-N-[(3R,4S,5S)-3-methoxy-1-{(2S)-2-[(1R,2R)-1-methoxy-3-{[(2S)-1-methoxy-1-oxo-3-phenylpropan-2-yl]amino}-2-methyl-3-oxopropyl]pyrrolidin-1-yl}-5-methyl-1-oxoheptan-4-yl]-N-methyl-L-valinamide] (H-[Aib]V[Dil][Dolaproine]F-OMe)	0.225 nM	0.327 nM
CC[C@H](C)[C@@H]([C@@H](CC(=O)N1CCC[C@H]1[C@H](OC)[C@@H](C)C(=O)N[C@@H](Cc1ccccc1)C(=O)NCc1c[nH]nn1)OC)N(C)C(=O)[C@@H](NC(=O)C(C)(C)NC)C(C)C [#240] (H-[NMeAib]V[Dil][Dolaproine]F-X14)	23.5 nM	19.9 nM
CC[C@H](C)[C@@H]([C@@H](CC(=O)N1CCC[C@H]1[C@H](OC)[C@@H](C)C(=O)N[C@@H](Cc1ccc(O)cc1)C(=O)OC)OC)N(C)C(=O)[C@@H](NC(=O)C(C)(C)NC)C(C)C [#243] (H-[NMeAib]V[Dil][Dolaproine]Y-OMe)	1.28 nM	1.3 nM
CC[C@H](C)[C@@H]([C@@H](CC(=O)N1CCC[C@H]1[C@H](OC)[C@@H](C)C(=S)N[C@@H](Cc1ccccc1)c1nccs1)OC)N(C)C(=O)[C@@H](NC(=O)[C@@H](NC)C(C)C)C(C)C [#26, N-methyl-L-valyl-N-[(3R,4S,5S)-3-methoxy-1-{(2S)-2-[(1R,2R)-1-methoxy-2-methyl-3-{[(1S)-2-phenyl-1-(1,3-thiazol-2-yl)ethyl]amino}-3-thioxopropyl]pyrrolidin-1-yl}-5-methyl-1-oxoheptan-4-yl]-N-methyl-L-valinamide]	1.04 nM	0.543 nM
CC[C@H](C)[C@@H]([C@@H](CC(=O)N1CCC[C@H]1[C@H](OC)[C@@H](C)C(=O)N[C@@H](Cc1ccccc1)C(=O)OC)OC)N(C)C(=O)[C@@H](NC(=O)C(C)(C)CN)C(C)C [#126, methyl N-[(2R,3R)-3-{(2S)-1-[(3R,4S,5S)-4-{[N-(3-amino-2,2-dimethylpropanoyl)-L-valyl](methyl)amino}-3-methoxy-5-methylheptanoyl]pyrrolidin-2-yl}-3-methoxy-2-methylpropanoyl]-L-phenylalaninate]	0.454 nM	0.375 nM
CC[C@H](C)[C@@H]([C@@H](CC(=O)N1CCC[C@H]1[C@H](OC)[C@@H](C)C(=O)N[C@@H](Cc1ccccc1)C(=O)OC)OC)N(C)C(=O)[C@@H](NC(=O)C1(N)COC1)C(C)C [#233] (H-[Ac4c(3-oxa)]V[Dil][Dolaproine]F-OMe)	5.04 nM	8.41 nM
